Measurements taken from PubChem BioAssay AID2060333 (Molecular Pharmacology Branch, DTP, NCI, 2025).
Where “and” joins values, the source holds several entries; their conditions need not be identical. Equal entries are not always repeated.

System: 845751-090-R-J2-PDC tumor spheroid viability
Test: Anticancer human tumor 845751-090-R-J2-PDC patient-derived head and neck squamous carcinoma cell line growth inhibition [IpAb]
Settings: spheroids with HUVEC and MSC; for viability, T/C: stronger effect = lower value
Text: Combinatorial screen of targeted agents with ipatasertib and abemaciclib in multi-cell type tumor spheroids
A high-throughput screen of multi-cell type tumor spheroids was designed to identify active combinations of targeted small molecules and ipatasertib or abemaciclib. Complex spheroids include a stromal component modeled by human endothelial cells (HUVEC) and fibroblasts modeled by human mesenchymal stem cells (MSCs). The concentration ranges selected for each drug and investigational agent were based upon clinically achievable concentrations if the clinical Cmax of the agent was known.
Compounds. The drugs and investigational agents: ipatasertib (NSC767898), abemaciclib(NSC768073), selumetinib (NSC741078), trametinib (758246), adavosertib (NSC754352), everolimus (NSC733504), sapanisertib (NSC764658), vemurafenib (NSC761431), venetoclax (NSC766270), copanlisib (NSC809693), apelisib (NSC765974), palbociblib (NSC758247), vemurafenib (NSC761431), dabrafenib (NSC764134), ravoxertinib (NSC781343), BMS-387032 (NSC767048), sotorasib (NSC818433), talazoparib (NSC767125) and afursertib (NSC778305), were obtained from the National Cancer Institute (NCI) Developmental Therapeutics Program Chemical Repository. The FDA-approved anticancer drug set is available from the NCI Developmental Therapeutics Program. […] The stock solutions were prepared in dimethyl sulfoxide (DMSO, Sigma-Aldrich, St. Louis, MO, cat. D2650) at 800-fold the tested concentration and stored at -70 degrees C prior to their use. All drugs and investigational agents were tested over a range starting from a high concentration at or near the clinical Cmax and decreasing in half-log increments. If the clinical Cmax for an agent had not been determined, the highest concentration tested was 10 microM.
NCI60 Cell Culture. NCI60 cell lines were obtained from the NCI Developmental Therapeutics Program Tumor Repository. For each lot of cells, the Repository performed Applied Biosystems AmpFLSTR Identifiler testing with PCR amplification to confirm consistency with the published Identifier STR profile for each cell line. Cells were kept in continuous culture for no more than 20 passages. The optimal seeding densities for each of the cell lines at each time point assessed were determined prior to performing the concentration response studies. Briefly, the NCI60 human tumor lines were grown as monolayers in RPMI 1640 medium supplemented with 10% FBS and 2 mmol/L L-glutamine.
An additional 9 lines were from the NCI60 cell line panel including MDA-MB-231 breast carcinoma, MDA-MB-468 breast carcinoma, MCF7 breast carcinoma, Hs578T breast carcinoma, MALME-3M melanoma, SK-MEL-2 melanoma, SK-OV-3 ovarian carcinoma, DU-145 prostate carcinoma, PC-3 prostate carcinoma, all cell lines along with major genetic alterations are listed on Table 2. Pooled donor human umbilical vein endothelial cells (HUVEC, Lonza, cat. CC-2519) and human mesenchymal stem cells (hMSC, Lonza, cat. PT-2501) were purchased from Lonza (Walkersville, MD).
PDMR cell lines were grown in complete medium (DC medium): Dulbecco's modified Eagle's medium (DMEM)/F12 supplemented with 5% fetal bovine serum (FBS), 2 mM L-glutamine, 100 U/mL penicillin and 100 µg/ml streptomycin, 0.4 µg/ml hydrocortisone, 10 ng/ml epidermal growth factor (EGF) recombinant human protein, 24 µg/mL adenine, and 0.1 mg/mL primocin. During culture from frozen stock vials, PDMR cells were cultured in the same medium containing 10 µM Y-27632 (see Table 3). The PDCs were cultured in complete DMEM/F12 media without 10 microM Y-27632 dihydrochloride for at least two passages prior to the screen. The pooled donor HUVEC and hMSC were cultured in endothelial cell growth medium 2 (PromoCell, Heidelberg, Germany, cat. C-22011) and mesenchymal stem cell growth medium 2 (PromoCell, cat. C-28009), respectively. For all experiments, HUVEC and hMSC were used at passages </=5.
[…]

[1] = curve of first compound, second compound 0.1 µM
[2] = curve of first compound, second compound 0.316 µM
[3] = curve of first compound, second compound 1 µM
[4] = second compound 0.1 µM, first compound 0.0316 µM
[5] = second compound 0.1 µM, first compound 0.1 µM
[6] = second compound 0.1 µM, first compound 0.316 µM
[7] = second compound 0.1 µM, first compound 1 µM
[8] = second compound 0.1 µM, first compound 3.16 µM
[9] = second compound 0.1 µM, first compound 10 µM
[10] = second compound 0.316 µM, first compound 0.0316 µM
[11] = second compound 0.316 µM, first compound 0.1 µM
[12] = second compound 0.316 µM, first compound 0.316 µM
[13] = second compound 0.316 µM, first compound 1 µM
[14] = second compound 0.316 µM, first compound 3.16 µM
[15] = second compound 0.316 µM, first compound 10 µM
[16] = second compound 1 µM, first compound 0.0316 µM
[17] = second compound 1 µM, first compound 0.1 µM
[18] = second compound 1 µM, first compound 0.316 µM
[19] = second compound 1 µM, first compound 1 µM
[20] = second compound 1 µM, first compound 3.16 µM
[21] = second compound 1 µM, first compound 10 µM
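Further: spheroids exposed to compounds for 7 days before readout.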
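Wherever viability, T/C is given: CTG3D luminescence normalised so that 100% = DMSO vehicle control.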

`CCCS(=O)(=O)Nc1ccc(F)c(C(=O)c2c[nH]c3ncc(-c4ccc(Cl)cc4)cc23)c1F` + CC(C)NCC(C(=O)N1CCN(c2ncnc3c2C(C)CC3O)CC1)c1ccc(Cl)cc1 was tested, and the IC50 [1] was > 10000 nM, the IC50 [2] was 126 nM and the IC50 [3] was < 31.6 nM. For the same molecule, the IC50 (curve of first compound, second compound 3.16 µM) was < 31.6 nM, the IC50 (curve of first compound, second compound 10 µM) was < 31.6 nM and the viability, T/C [4] was 74.3%. For the same molecule, the viability, T/C [5] was 75.2%, the viability, T/C [6] was 63% and the viability, T/C [7] was 61.6%. For the same molecule, the viability, T/C [8] was 49%, the viability, T/C [9] was 53.4% and the viability, T/C [10] was 47.2%. For the same molecule, the viability, T/C [11] was 52.1%, the viability, T/C [12] was 46.1% and the viability, T/C [13] was 55.4%. For the same molecule, the viability, T/C [14] was 56.7%, the viability, T/C [15] was 38.8% and the viability, T/C [16] was 46.5%. For the same molecule, the viability, T/C [17] was 45.9%, the viability, T/C [18] was 37.6% and the viability, T/C [19] was 31.2%. For the same molecule, the viability, T/C [20] was 42.5%, the viability, T/C [21] was 24.8% and the viability, T/C (second compound 3.16 µM, first compound 0.0316 µM) was 41.9%. The viability, T/C (second compound 3.16 µM, first compound 0.1 µM) was 42.6%, the viability, T/C (second compound 3.16 µM, first compound 0.316 µM) was 29% and the viability, T/C (second compound 3.16 µM, first compound 1 µM) was 26.5%. It also gave a viability, T/C (second compound 3.16 µM, first compound 3.16 µM) of 32%, a viability, T/C (second compound 3.16 µM, first compound 10 µM) of 16.3% and a viability, T/C (second compound 10 µM, first compound 0.0316 µM) of 18.7%. The viability, T/C (second compound 10 µM, first compound 0.1 µM) was 17.2%, the viability, T/C (second compound 10 µM, first compound 0.316 µM) was 19.6% and the viability, T/C (second compound 10 µM, first compound 1 µM) was 14.7%. For the same molecule, the viability, T/C (second compound 10 µM, first compound 3.16 µM) was 15.7% and the viability, T/C (second compound 10 µM, first compound 10 µM) was 7.71%.
For `CC(C)n1nc(-c2ccc3oc(N)nc3c2)c2c(N)ncnc21`, the viability, T/C (compound 0.000316 µM) was 108% and 77.2%, the viability, T/C (compound 0.001 µM) was 81.4% and 72.8% and the viability, T/C (compound 0.00316 µM) was 58.9% and 50.4%. The viability, T/C (compound 0.01 µM) was 57.2% and 53.4%, the viability, T/C (compound 0.0316 µM) was 49.8% and 32.9% and the viability, T/C (compound 0.1 µM) was 26% and 20.3%. The IC50 (curve of compound) was 16.2 nM and 7.32 nM.
With `C=CC(=O)N1CCN(c2nc(=O)n(-c3c(C)ccnc3C(C)C)c3nc(-c4c(O)cccc4F)c(F)cc23)C(C)C1` (centres undefined) the viability, T/C (compound 0.0316 µM) was 84.1% and 78.2%, the viability, T/C (compound 0.1 µM) was 88.8% and 74.3% and the viability, T/C (compound 0.316 µM) was 98.2% and 105%. For the same molecule, the viability, T/C (compound 1 µM) was 95.9% and 88.2%, the viability, T/C (compound 3.16 µM) was 82.6% and 77.3% and the viability, T/C (compound 10 µM) was 30.3% and 68.4%. The IC50 (curve of compound) was 6490 nM and > 10000 nM.
Molecule `Cn1ncc(Cl)c1-c1cc(C(=O)NC(CN)Cc2cccc(F)c2)sc1Cl` (centres undefined) + CCN1CCN(Cc2ccc(Nc3ncc(F)c(-c4cc(F)c5nc(C)n(C(C)C)c5c4)n3)nc2)CC1 has an IC50 (curve of first compound, second compound 0.01 µM) of 178 nM, an IC50 (curve of first compound, second compound 0.0316 µM) of 94.7 nM and an IC50 [1] of 160 nM. It also gave an IC50 [2] of 170 nM, an IC50 [3] of 401 nM and a viability, T/C (second compound 0.01 µM, first compound 0.0316 µM) of 97.8%. For the same molecule, the viability, T/C (second compound 0.01 µM, first compound 0.1 µM) was 58%, the viability, T/C (second compound 0.01 µM, first compound 0.316 µM) was 34% and the viability, T/C (second compound 0.01 µM, first compound 1 µM) was 32.3%. It also gave a viability, T/C (second compound 0.01 µM, first compound 3.16 µM) of 8.93%, a viability, T/C (second compound 0.01 µM, first compound 10 µM) of 0.28% and a viability, T/C (second compound 0.0316 µM, first compound 0.0316 µM) of 90.9%. The viability, T/C (second compound 0.0316 µM, first compound 0.1 µM) was 38.1%, the viability, T/C (second compound 0.0316 µM, first compound 0.316 µM) was 30.7% and the viability, T/C (second compound 0.0316 µM, first compound 1 µM) was 28.1%. For the same molecule, the viability, T/C (second compound 0.0316 µM, first compound 3.16 µM) was 8.85%, the viability, T/C (second compound 0.0316 µM, first compound 10 µM) was 0.59% and the viability, T/C [4] was 86.3%. For the same molecule, the viability, T/C [5] was 56.7%, the viability, T/C [6] was 34.1% and the viability, T/C [7] was 29.2%. For the same molecule, the viability, T/C [8] was 6.19%, the viability, T/C [9] was 0.25% and the viability, T/C [10] was 63.4%. The viability, T/C [11] was 72%, the viability, T/C [12] was 26.7% and the viability, T/C [13] was 25.8%. The viability, T/C [14] was 4.76%, the viability, T/C [15] was 0.45% and the viability, T/C [16] was 64.3%. It also gave a viability, T/C [17] of 75.1%, a viability, T/C [18] of 53.1% and a viability, T/C [19] of 27.4%. It also gave a viability, T/C [20] of 3.89% and a viability, T/C [21] of 0.61%.
